From patent US11655235B2, “Pyrrolidine and piperidine compounds” (YUHAN CORPORATION, priority 2019, dated 2023) come the findings set out here.

Read-outs that look alike come from different tables or passages of the source.

Assay type in all cases: biochemical
Assay [1] addresses T1, recombinant human DPP7 (Homo sapiens, UniProt Q9UHL4).
T1 construct: purchased R&D Systems
Nature of the assay: DPP7 inhibition, fluorogenic substrate Lys-Pro-AMC. The procedure, abridged:
(§1)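 Inhibitors are titrated in an 8-point series into the enzyme's assay buffer (DMSO no more than 0.5%). Substrate cleavage at 25 °C is followed by fluorescence, excitation 380 nm and emission 460 nm. IC50 values come from a four-variable logistic model.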

Assay [2] has as its target T2, recombinant human DPP8 (Homo sapiens, UniProt Q6V1X1).
T2 construct: purchased PBS Bioscience
The assay can be described thus: DPP8 inhibition, fluorogenic substrate Z-Ala-Pro-AMC. How it is done: The compounds according to the present technology were evaluated in terms of the inhibitory effect on the activity of dipeptidyl peptidases including FAP by using a substrate producing fluorescent substances upon enzymatic decomposition. The test was conducted at 25° C. to get a final reaction volume of 100 μL in a 96 black well plate. […] Briefly, the test compounds were dissolved in dimethyl sulfoxide (DMSO) at a concentration of 20 mM and then subjected to serial dilution, thereby creating an 8 point curve. As for the control group, a 6 point curve created by serial dilution of Talabostat in the same buffer solution was used. Fluorescence intensity was measured using a microplate reader (Flexstation3, Molecular Devices) under the wavelength condition exciting at 380 nm and reading the emission at 460 nm. The inhibitory effect of the test compounds was measured as a decrease (%) in the signal rate as compared to the control group without any inhibitor. Data was fixed to a logistic model with four variables and IC50 value was calculated using GraphPad Prism program. As for recombinant human DPP4 (R&D Systems), 25 mM tris (pH 8.0) buffer as a buffer solution and H-Gly-Pro-AMC (Bachem) as a substrate were used. As for recombinant human DPP7 (R&D Systems), 25 mM MES (pH 6.0) buffer as a buffer solution and Lys-Pro-AMC (Bachem) as a substrate were used. As for recombinant human DPP8 (PBS Bioscience), as a buffer solution, a 10 mM tris (pH 7.4) buffer comprising 10 mM of magnesium chloride and 0.05% of Tween 20, and Z-Ala-Pro-AMC (BPS Bioscience) as a substrate were used. As for recombinant human DPP9 (R&D Systems), a 25 mM tris (pH 8.0) buffer as a buffer solution and H-Gly-Pro-AMC (Bachem) as a substrate were used. As for recombinant human PREP (R&D System), as a buffer solution, a 25 mM tris (pH 7.5) buffer comprising 250 mM sodium chloride and 2.5 mM DTT (Dithiolthreitol), and Z-Gly-Pro-AMC (Bachem) as a substrate were used. The evaluation was made by using 10 ng of DPP4, PDD7, and PREP, 20 ng of DPP8, and 50 ng of DPP9 based on the final reaction. In the evaluation of DPP4, the test compounds were subjected to serial dilution in a buffer under the condition containing up to 0.1% of DMSO. In the evaluation of DPP7, DPP8, DPP9, and PREP, the test compounds were subjected to serial dilution in each buffer under the condition containing up to 0.5% of DMSO.

For assay [3], the target named is T3, recombinant human PREP (Homo sapiens, UniProt P48147).
T3 construct: purchased R&D System
T3 sequence (P48147 1-710): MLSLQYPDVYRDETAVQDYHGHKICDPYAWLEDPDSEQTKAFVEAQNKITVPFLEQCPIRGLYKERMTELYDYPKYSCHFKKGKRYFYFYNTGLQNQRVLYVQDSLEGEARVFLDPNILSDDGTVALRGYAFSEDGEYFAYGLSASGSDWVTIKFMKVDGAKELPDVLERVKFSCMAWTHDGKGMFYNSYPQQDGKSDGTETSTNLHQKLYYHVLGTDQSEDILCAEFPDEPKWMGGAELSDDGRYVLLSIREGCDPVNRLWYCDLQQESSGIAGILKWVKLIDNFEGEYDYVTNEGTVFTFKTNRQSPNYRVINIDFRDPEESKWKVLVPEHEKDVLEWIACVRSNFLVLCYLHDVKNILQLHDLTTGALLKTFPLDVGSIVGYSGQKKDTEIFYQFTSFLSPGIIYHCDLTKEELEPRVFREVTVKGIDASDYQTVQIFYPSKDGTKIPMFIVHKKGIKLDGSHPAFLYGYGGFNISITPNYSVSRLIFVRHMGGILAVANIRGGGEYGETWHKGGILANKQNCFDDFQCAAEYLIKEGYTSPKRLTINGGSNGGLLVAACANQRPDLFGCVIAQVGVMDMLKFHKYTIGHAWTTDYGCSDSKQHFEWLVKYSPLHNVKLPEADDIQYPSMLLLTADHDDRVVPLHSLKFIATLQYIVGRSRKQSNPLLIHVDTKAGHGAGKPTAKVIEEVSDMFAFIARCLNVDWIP
The assay can be described thus: PREP inhibition, fluorogenic substrate Z-Gly-Pro-AMC. To be noted: Inhibitory Activity (IC50, nM) PREP. The procedure, abridged:
as §1

In assay [4] the target is T4, recombinant human DPP9 (Homo sapiens, UniProt Q86TI2).
T4 construct: purchased R&D Systems
T4 sequence (Q86TI2 whole entry): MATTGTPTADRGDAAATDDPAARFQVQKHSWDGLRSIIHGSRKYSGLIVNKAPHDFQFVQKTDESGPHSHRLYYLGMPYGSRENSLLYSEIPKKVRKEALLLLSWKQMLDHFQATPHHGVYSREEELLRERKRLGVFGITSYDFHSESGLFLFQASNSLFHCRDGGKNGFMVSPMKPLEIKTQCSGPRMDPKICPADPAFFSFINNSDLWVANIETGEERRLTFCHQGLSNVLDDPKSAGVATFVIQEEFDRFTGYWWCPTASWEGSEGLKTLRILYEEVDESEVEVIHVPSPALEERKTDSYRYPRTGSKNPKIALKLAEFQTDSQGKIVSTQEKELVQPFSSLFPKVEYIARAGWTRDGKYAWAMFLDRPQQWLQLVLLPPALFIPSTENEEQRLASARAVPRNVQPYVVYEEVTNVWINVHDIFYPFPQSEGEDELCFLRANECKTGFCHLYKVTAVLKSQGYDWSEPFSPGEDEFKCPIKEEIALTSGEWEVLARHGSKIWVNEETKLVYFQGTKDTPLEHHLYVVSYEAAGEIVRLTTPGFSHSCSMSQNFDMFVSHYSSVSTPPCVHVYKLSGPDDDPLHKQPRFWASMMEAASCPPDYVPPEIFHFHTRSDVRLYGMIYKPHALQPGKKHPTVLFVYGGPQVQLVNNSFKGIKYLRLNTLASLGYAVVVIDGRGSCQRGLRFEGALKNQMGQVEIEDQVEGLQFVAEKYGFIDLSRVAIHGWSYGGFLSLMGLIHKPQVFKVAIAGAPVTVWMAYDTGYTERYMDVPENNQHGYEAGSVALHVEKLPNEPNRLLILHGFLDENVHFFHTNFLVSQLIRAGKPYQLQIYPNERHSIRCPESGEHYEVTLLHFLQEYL
The assay can be described thus: DPP9 inhibition, fluorogenic substrate H-Gly-Pro-AMC. In short, it runs like this:
as §1

Assay [5] addresses T5, Recombinant human FAP (Homo sapiens, UniProt Q12884).
T5 construct: purchased R&D systems
T5 sequence (Q12884 1-760): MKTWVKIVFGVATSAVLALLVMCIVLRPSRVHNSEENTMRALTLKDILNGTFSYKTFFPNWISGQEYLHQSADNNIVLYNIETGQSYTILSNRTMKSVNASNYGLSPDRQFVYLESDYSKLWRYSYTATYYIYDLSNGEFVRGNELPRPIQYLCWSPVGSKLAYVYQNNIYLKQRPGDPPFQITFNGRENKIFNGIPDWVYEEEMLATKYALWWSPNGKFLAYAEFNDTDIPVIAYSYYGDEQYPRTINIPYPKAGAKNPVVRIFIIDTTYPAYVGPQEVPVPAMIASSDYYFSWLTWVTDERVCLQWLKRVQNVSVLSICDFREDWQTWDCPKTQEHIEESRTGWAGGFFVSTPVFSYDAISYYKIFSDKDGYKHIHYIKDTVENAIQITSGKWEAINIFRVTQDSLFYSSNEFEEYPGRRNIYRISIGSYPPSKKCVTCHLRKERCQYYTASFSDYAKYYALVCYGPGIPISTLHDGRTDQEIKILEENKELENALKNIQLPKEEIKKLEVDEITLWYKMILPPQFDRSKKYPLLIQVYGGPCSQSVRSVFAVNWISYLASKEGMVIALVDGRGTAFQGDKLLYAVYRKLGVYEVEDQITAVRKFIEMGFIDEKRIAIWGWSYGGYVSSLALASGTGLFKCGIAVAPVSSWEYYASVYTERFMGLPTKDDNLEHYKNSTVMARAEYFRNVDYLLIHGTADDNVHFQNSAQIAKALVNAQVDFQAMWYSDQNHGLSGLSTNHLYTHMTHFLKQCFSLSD
Nature of the assay: FAP inhibition, fluorogenic substrate Z-Gly-Pro-AMC. The procedure, abridged: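 Eight-point compound dilutions (≤0.1% DMSO) were incubated at 25° C with 10 ng recombinant human FAP in Tris pH 7.5/1 M NaCl/BSA buffer and Z-Gly-Pro-AMC. Inhibition was taken as % drop in fluorescence rate (380/460 nm) against uninhibited control; IC50 came from a four-parameter logistic fit.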

Where [6] appears, read: 25° C., Z-Ala-Pro-AMC substrate.
The mark [7] stands for this setting: 25° C., Z-Gly-Pro-AMC substrate.
[8] abbreviates: 25° C., H-Gly-Pro-AMC substrate.
Setting [9] is: recombinant human FAP, substrate Z-Gly-Pro-AMC.

T2 sequence (Q6V1X1 whole entry): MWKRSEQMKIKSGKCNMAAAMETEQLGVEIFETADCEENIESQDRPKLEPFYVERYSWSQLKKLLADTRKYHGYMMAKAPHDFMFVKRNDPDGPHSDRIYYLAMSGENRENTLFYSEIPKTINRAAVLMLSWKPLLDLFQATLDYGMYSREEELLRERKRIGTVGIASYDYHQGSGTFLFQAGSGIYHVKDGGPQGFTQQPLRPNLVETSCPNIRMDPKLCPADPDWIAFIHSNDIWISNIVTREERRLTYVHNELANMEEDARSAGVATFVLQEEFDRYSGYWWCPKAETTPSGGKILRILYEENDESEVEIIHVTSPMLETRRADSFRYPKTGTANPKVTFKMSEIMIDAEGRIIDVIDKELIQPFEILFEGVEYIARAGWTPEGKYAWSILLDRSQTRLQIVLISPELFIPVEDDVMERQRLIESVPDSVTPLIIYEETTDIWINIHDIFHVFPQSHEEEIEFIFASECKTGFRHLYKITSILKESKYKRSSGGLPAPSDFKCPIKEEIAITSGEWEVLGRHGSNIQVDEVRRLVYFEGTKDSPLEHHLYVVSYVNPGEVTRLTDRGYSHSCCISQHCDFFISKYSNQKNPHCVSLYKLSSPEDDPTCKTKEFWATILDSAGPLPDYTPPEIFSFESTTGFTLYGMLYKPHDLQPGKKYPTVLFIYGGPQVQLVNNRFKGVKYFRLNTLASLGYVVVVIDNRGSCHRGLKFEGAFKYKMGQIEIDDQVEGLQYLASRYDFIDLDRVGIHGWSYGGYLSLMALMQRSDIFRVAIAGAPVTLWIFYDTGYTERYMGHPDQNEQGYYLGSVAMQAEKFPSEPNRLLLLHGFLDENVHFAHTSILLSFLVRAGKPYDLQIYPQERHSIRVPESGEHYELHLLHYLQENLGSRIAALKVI

As usually defined, the IC50 is the concentration needed to halve the response being measured. Take `Cc1ccc2ncc(N(C)[C@H]3CCN(CC(=O)N4CCC[C@H]4C#N)C3)cc2c1` [Example 150, (2S)-1-[2-[(3S)-3-[methyl-(6-methyl-3-quinolyl)amino]pyrrolidin-1-yl]acetyl]pyrrolidine-2-carbonitrile]: the IC50 in assay [1] is 1.83 µM; in assay [2] (setting [6]) it was at least 100 µM; in assay [3] (setting [7]), 2640 nM; in assay [4] (setting [8]), 39.6 µM; in assay [5] (setting [7]), 0.0011 µM.

Regarding `CN(c1cnc2ccc(F)cc2c1)[C@H]1CCN(CC(=O)N2CCC[C@H]2C#N)C1` [Example 151, (S)-1-(2-((S)-3-((6-fluoroquinolin-3-yl)(methyl)amino)pyrrolidin-1-yl)acetyl)pyrrolidine-2-carbonitrile], the IC50 in assay [1] turned out to be 2.55 µM; in assay [2] (setting [6]), 12.3 µM; in assay [3] (setting [7]) it was 3090 nM; in assay [4] (setting [8]), 23.9 µM; in assay [5] (setting [7]) it was 0.0016 µM.

`N#C[C@@H]1CCCN1C(=O)CN1CC[C@@H](Nc2cccc3ncccc23)C1` [Example 161, (S)-1-(2-((R)-3-(quinolin-5-ylamino)pyrrolidin-1-yl)acetyl)pyrrolidine-2-carbonitrile]: the IC50 in assay [1] (recombinant human DPP7) is 5.45 µM; in assay [2] (recombinant human DPP8), 41.5 µM; in assay [3] (recombinant human PREP) it was 4250 nM; in assay [4] (recombinant human DPP9), 25.4 µM; in assay [5] (setting [9]) it was 0.0014 µM.

Take `CN(c1ccc2ncccc2c1)[C@H]1CCN(CC(=O)N2CCC[C@H]2C#N)C1` [Example 145, (2S)-1-[2-[(3S)-3-[methyl(6-quinolyl)amino]pyrrolidin-1-yl]acetyl]pyrrolidine-2-carbonitrile]: the IC50 was 2.03 µM in assay [1]; 19.1 µM in assay [2] (setting [6]); 2690 nM in assay [3] (setting [7]); 16.8 µM in assay [4] (setting [8]); 0.0027 µM in assay [5] (setting [7]).

Turning to `CN(c1cnc2ccccc2c1)[C@H]1CCN(CC(=O)N2CCC[C@H]2C#N)C1` [Example 142, (2S)-1-[2-[(3S)-3-[methyl(3-quinolyl)amino]pyrrolidin-1-yl]acetyl]pyrrolidine-2-carbonitrile], the IC50 in assay [1] is 4.99 µM; in assay [2] (setting [6]), at least 100 µM; in assay [3] (setting [7]) it was 4510 nM; in assay [4] (setting [8]), 71 µM; in assay [5] (setting [7]) it was 0.0026 µM.

Take `N#C[C@@H]1C[C@H](F)CN1C(=O)CN1CC[C@@H](Nc2cnc3ccccc3c2)C1` [Example 165, (2S,4S)-4-fluoro-1-[2-[(3R)-3-(3-quinolylamino)pyrrolidin-1-yl]acetyl]pyrrolidine-2-carbonitrile]: the IC50 in assay [1] (recombinant human DPP7) is 1.15 µM; in assay [2] (recombinant human DPP8) it was at least 100 µM; in assay [3] (recombinant human PREP), 3970 nM; in assay [4] (recombinant human DPP9) it was 7.55 µM; in assay [5] (setting [9]), 0.0023 µM.

In the case of `CN(c1cnc2ccccc2c1)[C@@H]1CCN(CC(=O)N2CCC[C@H]2C#N)C1` [Example 138, (2S)-1-[2-[(3R)-3-[methyl(3-quinolyl)amino]pyrrolidin-1-yl]acetyl]pyrrolidine-2-carbonitrile], the IC50 in assay [1] is 3.7 µM; in assay [2] (setting [6]), at least 100 µM; in assay [3] (setting [7]), 7970 nM; in assay [4] (setting [8]), at least 100 µM; in assay [5] (setting [7]) it was 0.0248 µM.

Consider `N#C[C@@H]1C[C@H](F)CN1C(=O)CN1CC[C@@H](Nc2cccc3ncccc23)C1` [Example 166, (2S,4S)-4-fluoro-1-[2-[(3R)-3-(5-quinolylamino)pyrrolidin-1-yl]acetyl]pyrrolidine-2-carbonitrile], for which the IC50 stood at 0.958 µM in assay [1] (recombinant human DPP7); 6.16 µM in assay [2] (recombinant human DPP8); 769 nM in assay [3] (recombinant human PREP); 1.83 µM in assay [4] (recombinant human DPP9); 0.0021 µM in assay [5] (setting [9]).

As for `CN(c1cccc2ncccc12)[C@@H]1CCN(CC(=O)N2CCC[C@H]2C#N)C1` [Example 139, (2S)-1-[2-[(3R)-3-[methyl(5-quinolyl)amino]pyrrolidin-1-yl]acetyl]pyrrolidine-2-carbonitrile], the concentration for half-maximal inhibition (IC50) is 13 µM in assay [1]; at least 100 µM in assay [2] (setting [6]); 5020 nM in assay [3] (setting [7]); 89 µM in assay [4] (setting [8]); 0.0167 µM in assay [5] (setting [7]).

Take `N#C[C@@H]1CCCN1C(=O)CN1CC[C@@H](Nc2ccc3ncccc3c2)C1` [Example 162, (2S)-1-[2-[(3R)-3-(6-quinolylamino)pyrrolidin-1-yl]acetyl]pyrrolidine-2-carbonitrile]: the half-inhibitory concentration (IC50) in assay [1] (recombinant human DPP7) was 2.34 µM; in assay [2] (recombinant human DPP8) it was at least 100 µM; in assay [3] (recombinant human PREP) it was 2610 nM; in assay [4] (recombinant human DPP9), 14.9 µM; in assay [5] (setting [9]), 0.0052 µM.

On to `N#C[C@@H]1C[C@H](F)CN1C(=O)CN1CCC(Nc2cncc3c(Cl)cccc23)CC1` [Example 361, (2S,4S)-1-[2-[4-[(8-chloro-4-isoquinolyl)amino]-1-piperidyl]acetyl]-4-fluoro-pyrrolidine-2-carbonitrile], for which the IC50 in assay [1] (recombinant human DPP7) is 0.314 µM; in assay [2] (recombinant human DPP8), at least 100 µM; in assay [3] (recombinant human PREP), 409 nM; in assay [4] (recombinant human DPP9), 4.58 µM; in assay [5] (setting [9]) it was 0.0027 µM.

As to `Cc1c(N(C)[C@H]2CCN(CC(=O)N3CCC[C@H]3C#N)C2)cnc2ccccc12` [Example 149, (2S)-1-[2-[(3S)-3-[methyl-(4-methyl-3-quinolyl)amino]pyrrolidin-1-yl]acetyl]pyrrolidine-2-carbonitrile], the IC50 in assay [1] was 3.97 µM; in assay [2] (setting [6]), at least 100 µM; in assay [3] (setting [7]) it was 1620 nM; in assay [4] (setting [8]) it was 49.1 µM; in assay [5] (setting [7]) it was 0.0099 µM.
